These results are taken from patent US20230340011A1 (Asteroid Therapeutics, priority 2022, published 2023).

The target of assay [1] is SREBP-2 (Homo sapiens (Human), UniProt Q12772). Description: In vitro assay SREBP-2: PathHunter U2OS SREBP-2 Nuclear Translocation Cell Line, U18666A-stimulated. Format: cell-based. To be noted: PathHunter U2OS SREBP-2 nuclear translocation cells, U18666A 10 μM, overnight (16 hours).
The target in assay [2] is LXRβ (Homo sapiens (Human), UniProt P55055). Nature of the assay: In vitro assay LXRβ: PathHunter NHR CHO cells, LXRβ / Steroid Receptor Co-activator Peptide enzyme fragment complementation. The following applies: PathHunter NHR CHO cells, full-length human LXRβ and SRCP, chemiluminescent signal; read-out: LXRβ PPI. In kind it is cell-based. In a few lines: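 Enzyme fragment complementation read-out: CHO cells stably expressing ProLink-tagged full-length human LXRβ plus nuclear enzyme acceptor–SRCP fusion, seeded and held overnight at 37° C. Medium with charcoal-dextran filtered serum; final vehicle 1%. Chemiluminescence measured after signal generation.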
Sequence of LXRβ (P55055 whole entry, the tested form may be a part): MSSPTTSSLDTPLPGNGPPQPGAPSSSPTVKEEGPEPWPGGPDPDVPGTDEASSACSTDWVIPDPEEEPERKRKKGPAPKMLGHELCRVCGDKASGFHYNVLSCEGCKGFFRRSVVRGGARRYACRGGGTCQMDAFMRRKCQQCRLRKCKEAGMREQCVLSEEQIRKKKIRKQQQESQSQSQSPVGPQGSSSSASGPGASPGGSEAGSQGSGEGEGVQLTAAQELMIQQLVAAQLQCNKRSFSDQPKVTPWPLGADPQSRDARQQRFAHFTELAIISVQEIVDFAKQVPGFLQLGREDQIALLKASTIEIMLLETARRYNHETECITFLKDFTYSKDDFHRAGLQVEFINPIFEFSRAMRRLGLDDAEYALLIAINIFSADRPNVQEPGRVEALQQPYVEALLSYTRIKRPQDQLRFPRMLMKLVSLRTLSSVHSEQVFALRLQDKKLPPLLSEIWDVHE

By IC50 is commonly meant the midpoint of a concentration-inhibition curve. Take `CNC(=O)c1cccnc1OC[C@@H](C)[C@H]1CC[C@H]2[C@@H]3CC=C4C[C@@H](O)CC[C@]4(C)[C@H]3CC[C@]12C` [Example 253, 2-((S)-2-((3S,8S,9S,10R,13S,14S,17R)-3-hydroxy-10,13-dimethyl-2,3,4,7,8,9,10,11,12,13,14,15,16,17-tetradecahydro-1H-cyclopenta[a]phenanthren-17-yl)propoxy)-N-methylnicotinamide]: in assay [1], the IC50 is < 250 nM. Besides, the EC50 in assay [2] was > 10000 nM.

For the compound `CNC(=O)c1ccc(OC[C@@H](C)[C@H]2CC[C@H]3[C@@H]4CC=C5C[C@@H](O)CC[C@]5(C)[C@H]4CC[C@]23C)nc1` [Example 255, 6-((S)-2-((3S,8S,9S,10R,13S,14S,17R)-3-hydroxy-10,13-dimethyl-2,3,4,7,8,9,10,11,12,13,14,15,16,17-tetradecahydro-1H-cyclopenta[a]phenanthren-17-yl)propoxy)-N-methylnicotinamide], the IC50 in assay [1] was < 250 nM. In addition, the EC50 in assay [2] is > 10000 nM.

For the compound `C[C@H](COc1ncccc1CO)[C@H]1CC[C@H]2[C@@H]3CC=C4C[C@@H](O)CC[C@]4(C)[C@H]3CC[C@]12C` [Example 257, (3S,8S,9S,10R,13S,14S,17R)-17-((S)-1-((3-(hydroxymethyl)pyridin-2-yl)oxy)propan-2-yl)-10,13-dimethyl-2,3,4,7,8,9,10,11,12,13,14,15,16,17-tetradecahydro-1H-cyclopenta[a]phenanthren-3-ol], the IC50 in assay [1] was < 250 nM. In assay [2], the EC50 is > 10000 nM.

For the compound `C[C@H](COc1cc(CO)ccn1)[C@H]1CC[C@H]2[C@@H]3CC=C4C[C@@H](O)CC[C@]4(C)[C@H]3CC[C@]12C` [Example 258, (3S,8S,9S,10R,13S,14S,17R)-17-((S)-1-((4-(hydroxymethyl)pyridin-2-yl)oxy)propan-2-yl)-10,13-dimethyl-2,3,4,7,8,9,10,11,12,13,14,15,16,17-tetradecahydro-1H-cyclopenta[a]phenanthren-3-ol], the IC50 in assay [1] was < 250 nM. Moreover, the EC50 in assay [2] is > 10000 nM.

With `C[C@H](COc1cccc(CO)n1)[C@H]1CC[C@H]2[C@@H]3CC=C4C[C@@H](O)CC[C@]4(C)[C@H]3CC[C@]12C` [Example 260, (3S,8S,9S,10R,13S,14S,17R)-17-((S)-1-((6-(hydroxymethyl)pyridin-2-yl)oxy)propan-2-yl)-10,13-dimethyl-2,3,4,7,8,9,10,11,12,13,14,15,16,17-tetradecahydro-1H-cyclopenta[a]phenanthren-3-ol], the IC50 in assay [1] is < 250 nM. For the same compound, the EC50 in assay [2] was > 10000 nM.

Take `Cc1cccnc1OC[C@@H](C)[C@H]1CC[C@H]2[C@@H]3CC=C4C[C@@H](O)CC[C@]4(C)[C@H]3CC[C@]12C` [Example 261, (3S,8S,9S,10R,13S,14S,17R)-10,13-dimethyl-17-((S)-1-((3-methylpyridin-2-yl)oxy)propan-2-yl)-2,3,4,7,8,9,10,11,12,13,14,15,16,17-tetradecahydro-1H-cyclopenta[a]phenanthren-3-ol]: in assay [1], the IC50 was < 250 nM. The EC50 in assay [2] was > 10000 nM.

In the case of `Cc1cccc(OC[C@@H](C)[C@H]2CC[C@H]3[C@@H]4CC=C5C[C@@H](O)CC[C@]5(C)[C@H]4CC[C@]23C)n1` [Example 264, (1R,3aS,3bS,7S,9aR,9bS,11aS)-9a,11a-dimethyl-1-[(2S)-1-[(6-methylpyridin-2-yl)oxy]propan-2-yl]-1H,2H,3H,3aH,3bH,4H,6H,7H,8H,9H,9aH,9bH,10H,11H,11aH-cyclopenta[a]phenanthren-7-ol], the IC50 in assay [1] lay in the range of 250 to 1000 nM. In addition, the EC50 in assay [2] was > 10000 nM.

As to `Cc1ncccc1O[C@@H](C)[C@H]1CC[C@H]2[C@@H]3CC=C4C[C@@H](O)CC[C@]4(C)[C@H]3CC[C@]12C` [Example 274, (1S,3aS,3bS,7S,9aR,9bS,11aS)-9a,11a-dimethyl-1-[(1S)-1-[(2-methylpyridin-3-yl)oxy]ethyl]-1H,2H,3H,3aH,3bH,4H,6H,7H,8H,9H,9aH,9bH,10H,11H,11aH-cyclopenta[a]phenanthren-7-ol], the IC50 in assay [1] is 250 to 1000 nM. The EC50 in assay [2] was > 10000 nM.
